Results published in patent publication US9656978B2, “Acylpiperazines as inhibitors of transglutaminase and their use in medicine” (ASTON UNIVERSITY, priority 2012, dated 2017).

How the values were obtained:
[1] = target: T1, purified recombinant human TG2 (tissue transglutaminase) (Homo sapiens, UniProt P21980); assay: TG2 transamidation activity, biotin X-cadaverine incorporation into N,N′-dimethylcasein (Example 2); assay type: biochemical; settings: recombinant human TG2 400 ng/ml, 2 h at 37° C.
T1 construct: purchased Zedira, Germany
T1 sequence (P21980 1-687): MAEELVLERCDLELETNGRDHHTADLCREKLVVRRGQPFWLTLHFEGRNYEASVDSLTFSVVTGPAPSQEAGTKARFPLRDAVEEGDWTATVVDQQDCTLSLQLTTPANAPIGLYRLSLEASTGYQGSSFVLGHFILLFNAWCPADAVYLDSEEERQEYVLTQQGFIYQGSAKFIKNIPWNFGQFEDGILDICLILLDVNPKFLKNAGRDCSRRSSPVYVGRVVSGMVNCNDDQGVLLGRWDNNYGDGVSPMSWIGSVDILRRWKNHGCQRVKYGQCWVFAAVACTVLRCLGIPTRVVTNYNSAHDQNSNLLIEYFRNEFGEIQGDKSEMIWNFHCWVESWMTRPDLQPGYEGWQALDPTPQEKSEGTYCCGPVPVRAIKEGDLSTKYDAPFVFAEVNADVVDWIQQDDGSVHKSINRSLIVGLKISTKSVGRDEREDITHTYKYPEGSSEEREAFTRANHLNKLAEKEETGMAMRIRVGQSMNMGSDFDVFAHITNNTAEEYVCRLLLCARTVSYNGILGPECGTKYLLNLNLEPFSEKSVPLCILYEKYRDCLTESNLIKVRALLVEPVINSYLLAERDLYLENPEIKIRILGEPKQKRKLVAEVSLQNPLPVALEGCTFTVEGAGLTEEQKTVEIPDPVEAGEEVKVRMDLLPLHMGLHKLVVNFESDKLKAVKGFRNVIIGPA
Protocol: TG transamidation activity and the affect of inhibitors on activity was measured by biotin X-cadaverine incorporation into N,N′-dimethylcasein. After coating 96 well plates with 100 μl of 10 mg/ml N,N′-dimethylcasein in 50 mM Tris-Cl, pH8 at 4° C. over night, plates were washed with TBS-0.05% Tween-20(v/v), pH 7.6 and TBS, pH 7.6, and 100 μl purified recombinant human TG2 (400 ng/ml Zedira, Germany) (tissue transglutaminase) in 50 mM Tris-HCl, pH7.4, containing 1 mM DTT, 10 mM CaCl2 and 0.1 μM biotin-cadaverine added into the coated wells containing the appropriate concentration of inhibitor. The reaction was allowed to proceed for 2 h at 37° C. The plate was then washed twice with TBS-Tween-20 (v/v), pH 7.6 and once with TBS, pH 7.6 before being blocked with 100 μl of blocking buffer (3% (w/v) BSA in TBS-Tween, pH 7.6) for 30 min at 37° C. After blocking, the wells were incubated with 100 μl HRP-conjugated Extr-Avidin peroxidase (Sigma-Aldrich, UK) in blocking buffer (1:1,000 dilution) for 1 h at 37° C. After another set of washes, TG2 activity was measured using Sigma Fast OPD, tablets dissolved in 20 ml of distilled H2O. The colour was developed by adding 2.5 M H2SO4 and the absorbance at 490 nm measured using a microplate reader ELx808™. All inhibitors were dissolved in DMSO as a 100 mM solution prior to addition to the assay.

Factor X111a = target: T2, Factor X111a (Homo sapiens, UniProt P00488); assay: TG-CovTest commercial microassay, Factor X111a; assay type: biochemical; settings: read-out: Estimated IC50 FXIII
T2 sequence (P00488 39-732 limits assumed): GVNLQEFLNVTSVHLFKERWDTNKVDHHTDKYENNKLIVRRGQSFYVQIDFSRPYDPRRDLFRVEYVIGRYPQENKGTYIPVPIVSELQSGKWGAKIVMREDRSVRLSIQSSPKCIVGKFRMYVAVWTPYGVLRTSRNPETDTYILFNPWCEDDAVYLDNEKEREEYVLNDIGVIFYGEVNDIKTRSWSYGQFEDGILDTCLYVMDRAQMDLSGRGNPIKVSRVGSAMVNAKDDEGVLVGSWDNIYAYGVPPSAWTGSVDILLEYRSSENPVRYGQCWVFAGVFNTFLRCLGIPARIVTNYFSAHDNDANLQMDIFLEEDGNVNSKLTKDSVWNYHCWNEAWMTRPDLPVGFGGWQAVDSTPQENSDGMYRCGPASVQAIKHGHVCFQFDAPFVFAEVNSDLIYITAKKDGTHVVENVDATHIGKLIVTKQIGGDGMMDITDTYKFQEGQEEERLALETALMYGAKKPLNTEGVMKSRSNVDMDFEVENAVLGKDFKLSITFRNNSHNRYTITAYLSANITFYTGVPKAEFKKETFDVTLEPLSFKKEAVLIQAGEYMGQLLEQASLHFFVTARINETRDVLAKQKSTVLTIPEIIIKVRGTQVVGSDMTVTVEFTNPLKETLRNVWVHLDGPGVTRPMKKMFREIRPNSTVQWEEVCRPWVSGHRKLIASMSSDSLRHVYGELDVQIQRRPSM
Source text: (§1) For determination of the activity of transglutaminase 1,transglutaminase 3 and Factor X111a, a commercial microassay was used, TG-CovTest (Covalab, Lyon, France; see also Perez et al. Anal Biochem. 2009; 389:150-156).

transglutaminase 1 = target: T3, transglutaminase 1 (Homo sapiens, UniProt P22735); assay: TG-CovTest commercial microassay, transglutaminase 1; assay type: biochemical; settings: read-out: Estimated IC50 TG1
T3 sequence (P22735 1-817): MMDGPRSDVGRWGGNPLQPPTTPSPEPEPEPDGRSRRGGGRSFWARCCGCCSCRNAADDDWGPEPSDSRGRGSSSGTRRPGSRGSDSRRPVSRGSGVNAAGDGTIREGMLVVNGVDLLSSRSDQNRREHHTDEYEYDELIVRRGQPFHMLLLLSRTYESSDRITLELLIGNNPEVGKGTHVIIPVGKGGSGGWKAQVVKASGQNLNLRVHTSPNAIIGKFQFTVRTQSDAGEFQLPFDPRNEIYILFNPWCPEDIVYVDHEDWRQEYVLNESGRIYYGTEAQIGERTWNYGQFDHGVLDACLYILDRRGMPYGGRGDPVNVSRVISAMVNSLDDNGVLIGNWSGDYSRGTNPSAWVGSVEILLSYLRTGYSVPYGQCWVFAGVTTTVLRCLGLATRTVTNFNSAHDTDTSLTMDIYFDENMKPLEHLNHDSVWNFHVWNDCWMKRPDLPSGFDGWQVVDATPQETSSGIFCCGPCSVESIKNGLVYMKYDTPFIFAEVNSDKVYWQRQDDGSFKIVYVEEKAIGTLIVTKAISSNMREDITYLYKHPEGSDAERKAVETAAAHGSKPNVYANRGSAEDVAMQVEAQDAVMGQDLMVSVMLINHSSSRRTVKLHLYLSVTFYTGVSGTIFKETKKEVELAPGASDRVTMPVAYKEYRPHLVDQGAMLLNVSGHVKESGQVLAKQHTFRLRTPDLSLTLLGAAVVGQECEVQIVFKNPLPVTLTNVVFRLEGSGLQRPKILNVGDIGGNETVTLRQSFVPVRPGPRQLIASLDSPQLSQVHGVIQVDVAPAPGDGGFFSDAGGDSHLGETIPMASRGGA
Source text: as §1

transglutaminase 3 = target: T4, transglutaminase 3 (Homo sapiens, UniProt Q08188); assay: TG-CovTest commercial microassay, transglutaminase 3; assay type: biochemical; settings: read-out: Estimated IC50 TG3
T4 sequence (Q08188 1-693): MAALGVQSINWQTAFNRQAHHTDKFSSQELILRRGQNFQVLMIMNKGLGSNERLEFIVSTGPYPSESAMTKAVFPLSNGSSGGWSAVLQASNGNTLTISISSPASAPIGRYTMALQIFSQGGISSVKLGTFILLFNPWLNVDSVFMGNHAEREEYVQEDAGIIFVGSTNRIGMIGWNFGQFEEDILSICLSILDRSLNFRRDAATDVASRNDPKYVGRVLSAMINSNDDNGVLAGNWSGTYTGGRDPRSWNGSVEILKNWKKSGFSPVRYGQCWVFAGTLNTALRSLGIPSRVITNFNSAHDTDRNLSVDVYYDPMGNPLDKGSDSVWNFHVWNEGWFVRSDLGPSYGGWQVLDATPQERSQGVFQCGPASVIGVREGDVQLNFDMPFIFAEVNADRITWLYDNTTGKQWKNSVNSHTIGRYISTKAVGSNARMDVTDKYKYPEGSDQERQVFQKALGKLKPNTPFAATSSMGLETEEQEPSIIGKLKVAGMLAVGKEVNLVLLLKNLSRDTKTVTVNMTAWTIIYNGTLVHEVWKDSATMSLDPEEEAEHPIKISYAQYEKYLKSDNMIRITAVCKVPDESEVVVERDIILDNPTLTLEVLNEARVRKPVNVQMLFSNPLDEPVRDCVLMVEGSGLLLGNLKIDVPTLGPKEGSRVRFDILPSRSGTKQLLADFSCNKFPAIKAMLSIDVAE
Source text: as §1

| SMILES | IC50 [1] | IC50 (Factor X111a) | also measured |
| --- | --- | --- | --- |
| COC(=O)c1ccc2cc(COC(=O)N3CCN(C(=O)CNC(=O)C[S+](C)C)CC3)ccc2c1.[Br-] |  |  | melting point: 125 to 126 °C |
| CN(C)c1cccc2c(S(=O)(=O)N3CCN(C(=O)CNC(=O)C[S+](C)C)CC3)cccc12.[Br-] |  |  | melting point: 98 to 99 °C |
| C=CS(=O)(=O)NCC(=O)N1CCN(C(=O)OCc2ccccc2)CC1 [Compound 8a, benzyl 4-[2-(vinylsulfonylamino)acetyl]piperazine-1-carboxylate] |  |  | melting point: 66 to 67 °C |
| C=CS(=O)(=O)NCC(=O)N1CCN(C(=O)C23CC4CC(CC(C4)C2)C3)CC1 [Compound 8e, N-[2-[4-(adamantane-1-carbonyl)piperazin-1-yl]-2-oxo-ethyl]ethenesulfonamide] |  |  | melting point: 159 to 160 °C |
| O=C(CBr)NCC(=O)N1CCN(C(=O)OCc2ccccc2)CC1 [EB 1-32] | 0.75 ± 0.07 µM |  |  |
| C[S+](C)CC(=O)NCC(=O)N1CCN(C(=O)OCc2ccccc2)CC1 [EB 1-33] |  | > 100 µM |  |
| CC(C)(C)OC(=O)N1CCN(C(=O)CNC(=O)CBr)CC1 [EB 1-37] | 0.008 ± 0.003 µM |  |  |
| CC(=O)NCC(=O)N1CCN(C(=O)OCc2ccccc2)CC1 [EB 1-44] | 4.25 ± 0.78 µM |  |  |
| Cc1c(C)[n+](C)c(SCC(=O)NCC(=O)N2CCN(C(=O)OC(C)(C)C)CC2)n1C [EB 1-45] | 400 µM |  |  |
| C[S+](C)CC(=O)NCC(=O)N1CCN(C(=O)OC(C)(C)C)CC1 [EB 1-46] | 0.07 ± 0.007 µM | > 100 µM |  |
| C=CC(=O)NCC(=O)N1CCN(C(=O)OCc2ccc3ccccc3c2)CC1 [EB 1-81] |  | > 100 µM |  |
| C[S+](C)CC(=O)NCC(=O)N1CCN(C(=O)OCc2ccc3ccccc3c2)CC1 [EB 1-91] |  | > 100 µM |  |
| C[C@@H](NC(=O)CBr)C(=O)N1CCN(C(=O)OCc2ccccc2)CC1 [EB 1-100] | 0.066 ± 0.001 µM |  |  |
| C[C@H](NC(=O)CBr)C(=O)N1CCN(C(=O)OCc2ccccc2)CC1 [EB 1-101] | 0.048 ± 0.006 µM |  |  |
| C=CC(=O)NCC(=O)N1CCN(C(=O)OCc2ccc3cc(C(=O)OC)ccc3c2)CC1 [EB 1-136] |  | > 100 µM |  |
| COC(=O)c1ccc2cc(COC(=O)N3CCN(C(=O)CNC(=O)CBr)CC3)ccc2c1 [EB 1-137] |  | < 100 µM |  |
| C=CC(=O)NCC(=O)N1CCN(S(=O)(=O)c2cccc3c(N(C)C)cccc23)CC1 [EB 1-155] | 0.0061 ± 0.00042 µM | > 100 µM | IC50 (transglutaminase 1): 5 µM; IC50 (transglutaminase 3): > 100 µM |

The next lines start with results.

| IC50 [1] | IC50 (Factor X111a) | SMILES | also measured |
| --- | --- | --- | --- |
|  | > 100 µM | CC[S+](CC)CC(=O)NCC(=O)N1CCN(S(=O)(=O)c2cccc3c(N(C)C)cccc23)CC1 [EB 1-159] | IC50 (transglutaminase 1): > 100 µM; IC50 (transglutaminase 3): > 100 µM |
| < 1 µM | > 100 µM | O=C(CBr)NCC(=O)N1CCN(C(=O)OCC23CC4CC(CC(C4)C2)C3)CC1 [EB 1-176] | IC50 (transglutaminase 1): 2 µM; IC50 (transglutaminase 3): 25 µM |
| 0.0063 ± 0.00049 µM | > 100 µM | O=C(CBr)NCC(=O)N1CCN(C(=O)OCCC23CC4CC(CC(C4)C2)C3)CC1 [EB 1-177] |  |
|  | > 100 µM | C[S+](C)CC(=O)NCC(=O)N1CCN(C(=O)OCC23CC4CC(CC(C4)C2)C3)CC1 [EB 1-178] |  |
|  | > 100 µM | C=CC(=O)NCC(=O)N1CCN(C(=O)OCCC23CC4CC(CC(C4)C2)C3)CC1 [EB 1-181] |  |
|  | 30 µM | C=CC(=O)NCC(=O)N1CCN(C(=O)C23CC4CC(CC(C4)C2)C3)CC1 [EB 2-16] | IC50 (transglutaminase 1): 2 µM |
|  | < 100 µM | O=C(CBr)NCC(=O)N1CCN(C(=O)C23CC4CC(CC(C4)C2)C3)CC1 [EB 2-17] |  |
|  | > 100 µM | C[S+](C)CC(=O)NCC(=O)N1CCN(C(=O)C23CC4CC(CC(C4)C2)C3)CC1 [EB 2-18] |  |
| 0.0059 ± 0.00014 µM |  | CN(C)c1cccc2c(S(=O)(=O)N3CCN(C(=O)CNC(=O)CCl)CC3)cccc12 [EB 2-57] |  |
